# US11492325B2, “Compounds as inhibitors of sodium channels” (Human BioMolecular Research Institute, priority 2016, dated 2022)
# Counter-ions that a name gives are not always drawn.
# Key:
# [1] = Metabolism in human hepatic S9
# Procedure: (§1) A typical incubation contained rat, mouse, dog or human liver microsomes (0.4-0.5 mg of protein), 100 mM potassium phosphate buffer (pH7.4), 50 μM test compound, an NADPH-generating system consisting of 0.5 mM NADP^+, 0.5 mM glucose-6-phosphate, 1 IU/mL glucose-6-phosphate dehydrogenase, 1 mg/mL diethylenetriaminepentaaceticacid (DETAPAC), and 3 mM MgCl2 in a final incubation volume of 0.25 mL. […] After centrifugation at 3000 rpm for 5 min, the organic fraction was collected, the solvent was removed with a stream of argon and the residue was reconstituted in 125 μL of MeOH and 125 μL H2O, mixed thoroughly, centrifuged at 13,000 rpm for 5 min and analyzed by high performance liquid chromatography. Samples were run on a Hitachi D-7000 HPLC system using a L-7100 analytical pump, L-7400 UV-Visible variable wavelength detector, and L-7600 automatic sample injector. […] Disappearance of the analyte was monitored over time. A plot of the area under the curve for the normalized analyte versus time afforded the half-life values and kapp.
# Microsomes contain CYPs and FMO metabolic enzymes. S9 contains soluble enzymes (i.e., aldehyde oxidase, MAO, etc.).
# [2] = molecular target: hERG potassium channel (IKr) (Homo sapiens, UniProt Q12809); experiment: Automated patch clamp, hERG (IKr) expressed in CHO cells; conditions: for IC50: hERG (IKr) IC50, CHO cells
# Sequence of hERG potassium channel (IKr) (Q12809 whole entry): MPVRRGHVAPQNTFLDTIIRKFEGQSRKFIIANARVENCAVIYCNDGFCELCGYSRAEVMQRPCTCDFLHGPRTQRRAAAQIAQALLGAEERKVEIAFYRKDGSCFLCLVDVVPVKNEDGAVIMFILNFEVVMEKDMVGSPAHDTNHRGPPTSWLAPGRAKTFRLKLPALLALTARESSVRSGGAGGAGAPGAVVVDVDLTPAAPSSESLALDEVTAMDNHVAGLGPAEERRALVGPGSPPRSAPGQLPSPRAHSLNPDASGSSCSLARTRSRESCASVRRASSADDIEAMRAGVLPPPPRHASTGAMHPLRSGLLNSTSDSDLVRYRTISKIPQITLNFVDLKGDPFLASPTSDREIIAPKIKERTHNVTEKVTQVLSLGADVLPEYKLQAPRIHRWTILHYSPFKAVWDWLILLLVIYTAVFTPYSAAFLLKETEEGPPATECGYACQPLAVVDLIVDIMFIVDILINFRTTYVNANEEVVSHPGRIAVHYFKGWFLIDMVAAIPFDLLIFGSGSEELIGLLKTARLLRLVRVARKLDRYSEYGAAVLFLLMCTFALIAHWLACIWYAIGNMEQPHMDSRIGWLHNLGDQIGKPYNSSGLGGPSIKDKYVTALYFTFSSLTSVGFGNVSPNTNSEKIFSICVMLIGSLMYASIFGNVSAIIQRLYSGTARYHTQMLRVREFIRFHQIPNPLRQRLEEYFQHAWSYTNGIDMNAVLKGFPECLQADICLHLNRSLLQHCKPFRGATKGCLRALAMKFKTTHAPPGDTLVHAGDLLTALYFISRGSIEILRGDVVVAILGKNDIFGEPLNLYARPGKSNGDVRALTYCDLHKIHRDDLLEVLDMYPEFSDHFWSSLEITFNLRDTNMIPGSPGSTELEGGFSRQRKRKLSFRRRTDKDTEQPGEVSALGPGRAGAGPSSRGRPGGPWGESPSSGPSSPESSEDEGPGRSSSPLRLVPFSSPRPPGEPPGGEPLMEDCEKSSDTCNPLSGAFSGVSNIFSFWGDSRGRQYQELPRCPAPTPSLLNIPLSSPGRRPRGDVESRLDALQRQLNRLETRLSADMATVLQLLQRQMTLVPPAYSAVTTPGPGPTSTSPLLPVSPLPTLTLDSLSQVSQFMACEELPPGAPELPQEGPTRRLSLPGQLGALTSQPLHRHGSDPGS
# [3] = molecular target: Nav1.5 sodium channel, peak current (INaP) (Homo sapiens, UniProt Q14524, form not given); experiment: in vitro
# Procedure: (§2) This provided data to investigate the physiology and action of target compounds on individual ion channels. The assay used standardized protocols for culturing and conducting conventional whole cell recording that have been previously developed for both current and voltage-clamp to characterize action potentials using transfected cells. Briefly, the Nav1.5 sodium channel was transfected into HEK293 cells. […] Briefly, cells were plated on 0.1% gelatin-coated 35-mm plastic Petri dishes. […] Data was reported as IC50 values±STD (Table 1).
# [4] = system: cardiomyocytes derived from hiPSCs from a LQTS3 patient; experiment: cells; conditions: Homo sapiens, Cardiomyocyte, read-out: LQT-IC50 (uM)-Shortening
# [5] = molecular target: Nav1.5 sodium channel transfected into HEK293 cells (Homo sapiens, UniProt Q14524); experiment: Patch clamp electrophysiology, peak (INaP) and late (INaL) sodium current in transfected cells
# Procedure: as §2
# [6] = system: cardiomyocytes derived from hiPSCs from a LQTS3 patient; conditions: LQT3 cardiomyocytes
# [7] = system: normal human induced pluripotent stem cell (hiPSC) cardiomyocyte; conditions: normal hiPSC cardiomyocytes; for WT-Fold Prolongation: APD
# Male BALBc mice = conditions: mice, 100 mg/kg
# Excerpt: Male BALBc mice (20-22 g) were used throughout these studies. The animals were maintained in a temperature-controlled room with 12-hr periods of light and darkness and had continuous access to water and animal food. […] Groups contained 2-4 animals.
# [8] = Metabolic stability in human liver microsomes; format: in vitro ADME; conditions: human, microsomes, 1 h
# Procedure: as §1
# [9] = ratio peak/late IC50, Example 2
SMILES,LQT-Cessation Dose [6],WT-EAD Dose [7] [µM],IC50 ([2]; Example 2) [µM],IC50 ([3]; Peak Na+ (INaP) IC50) [µM],IC50 [4] [µM],IC50 [2] [µM],DKr/NaL ([2]; ratio hERG IC50/late Na IC50),DNaP/Kr ([2]; ratio peak Na IC50/hERG IC50),"DKr/NaL ([2]; ratio, Example 2)","DNaP/Kr ([2]; ratio, Example 2)",DNap/NaL ([5]; ratio peak IC50/late IC50),"DNap/NaL [5, 9]",LQT-Fold Shortening [6],WT-Fold Prolongation [7],Cessation of Beating [7],WT-Prolongation Dose [7],IC50 [5] [µM],other results
Cc1ccccc1OCC(N)c1ccccc1.Cl (stereo in doubt) [(S)-25],–,–,–,–,–,–,–,–,–,–,–,–,–,–,–,–,–,"Liver S-9, remaining after 1 hr ([1]; human, s9, 1 h): >95% after 1 hr"
Cc1cccc(C)c1OCC(C)N (racemic) [racemic Mexiletine],–,–,54,183,1.83,–,–,–,–,–,–,–,–,–,–,–,–,–
Cc1ccccc1OCC(N)c1ccccc1.Cl (stereo in doubt) [(R)-25],–,–,–,–,–,–,–,–,–,–,–,–,–,–,–,–,–,"Liver S-9 T1/2 ([1]; human, s9): 6.8 h"
"Cc1cccc(C)c1OC[C@@H](C)N [(R)-Mexiletine, reference compound]",–,–,–,–,–,–,–,–,–,–,–,–,–,–,–,–,–,"Liver S-9, remaining after 1 hr ([1]; human liver S-9, 1 hr): >95% after 1 hr"
Cc1cc(C)cc(OCC(N)c2ccccc2)c1.Cl (stereo in doubt) [(S)-70],–,–,–,–,–,–,–,–,–,–,–,–,–,–,–,–,–,"Behavior Effect (S)-enantiomer (Male BALBc mice): 2/4 lethargic; behavioral effects at 100 mg/kg (Male BALBc mice; enantiomers): Minor lethargy; Liver S-9, remaining after 1 hr ([1]; human, s9, 1 h): >95% after 1 hr; Liver Microsomes, remaining after 1 hr [8]: >95% after 1 hr"
Cc1cc(C)cc(OCC(N)C2CC2)c1.Cl (stereo not shown) [Compound 91],–,–,45.8,76.8,–,45.8,4.6,1.7,4.6,1.7,7.7,7.68,–,–,–,–,10,–
"Cc1cccc(C)c1OC[C@H](C)N [(S)-Mexiletine, reference compound]",–,–,–,–,–,–,–,–,–,–,–,–,–,–,–,–,–,"Liver S-9, remaining after 1 hr ([1]; human liver S-9, 1 hr): >95% after 1 hr"
Cc1ccc(OCC(N)c2ccccc2)c(C)c1.Cl (stereo not shown) [Compound 66],66 µM,–,5.9,22.1,0.486,5.9,2.8,3.7,2.8,3.7,10.5,10.7,1.192,None,66 µM,None,–,–
Cc1cc(C)cc(OCC(N)C2CCCCC2)c1.Cl (stereo not shown) [Compound 89],–,–,4.9,24.3,–,4.9,3.1,5.0,3.1,5.0,15.2,15.3,–,–,–,–,–,–
COCCNC(COc1ccccc1C)c1ccccc1.Cl (stereo not shown) [Compound 90],133 µM,–,25.3,–,–,–,–,–,1.32,1.32,11.8,11.8,1.1,None,133 µM,None,–,"IC50 ([5]; read-out: Late Na+ (INaL) IC50, patch clamp, transfected cells): 2.83 µM; IC50 ([5]; read-out: Late Na+ (INaL) IC50, transfected cells, Example 2): 2.83 µM; IC50 ([5]; read-out: Peak Na+ (INaP) IC50, transfected cells, Example 2): 33.4 µM; IC50 [3]: 33.4 µM"
COCCNC(COc1cc(C(F)(F)F)cc(C(F)(F)F)c1)c1ccccc1.Cl (stereo not shown) [Compound 80],133 µM,–,16.8,45.1,6.59,16.8,16.5,2.7,16.5,2.7,44.2,44.2,1.636,None,None,None,–,–
"NC(COc1ccccc1C(F)(F)F)c1ccccc1 (stereo not shown) [Compound 27, 1-phenyl-2-(2-(trifluoromethyl)phenoxy)ethanamine]",66 µM,–,–,41.1,> 0.8,37.5,36.1,1.1,–,–,39.5,–,1.783,None,66 µM,None,1.04,–

# The next lines start with results.
LQT-Cessation Dose [6],WT-EAD Dose [7] [µM],SMILES,IC50 ([2]; Example 2) [µM],IC50 ([3]; Peak Na+ (INaP) IC50) [µM],IC50 [4] [µM],IC50 [2] [µM],DKr/NaL ([2]; ratio hERG IC50/late Na IC50),DNaP/Kr ([2]; ratio peak Na IC50/hERG IC50),"DKr/NaL ([2]; ratio, Example 2)","DNaP/Kr ([2]; ratio, Example 2)",DNap/NaL ([5]; ratio peak IC50/late IC50),"DNap/NaL [5, 9]",LQT-Fold Shortening [6],WT-Fold Prolongation [7],Cessation of Beating [7],WT-Prolongation Dose [7],IC50 [5] [µM],other results
None,–,Cc1cccnc1OCC(O)c1ccccc1 (stereo not shown) [Compound 21],> 100,129,–,100,4.7,1.3,>4.7,1.3,6.1,6.1,1.23,None,None,None,–,–
22 µM,–,"Cc1cccnc1OCC(C)N (stereo not shown) [Compound 100, 1-(-3-Methyl-pyridin-2-yloxy)propan-2-amine]",–,252,–,–,–,–,–,–,–,–,1.13,None,None,None,–,–
200 µM,66,Cc1cccc(C)c1OCC(N)C1CC1 (stereo not shown) [Compound 10],–,130,0.8,30,4.1,4.3,–,–,18.0,–,1.162,2.262,–,–,7.3,–
22 µM,7.4,"Cc1cccc(C)c1OCC(N)C(C)(C)C (stereo not shown) [Compound 12, 1-(2,6-dimethylphenoxy)-3,3-dimethylbutan-2-amine]",–,91,0.648,49,4.5,1.9,–,–,8.3,–,1.182,>4,–,–,11,–
200 µM,–,Cc1cc(C)cc(OCC(C)N)c1 (stereo not shown) [Compound 55],–,154,4.45,49,2.9,3.1,–,–,9.1,–,1.232,1.159,None,–,17,–
None,200,"Cc1ccccc1OCC(C)N (stereo not shown) [Compound 9, 1-(2-Methylphenoxy)propan-2-amine]",–,162,0.76,98,1.9,1.7,–,–,3.1,–,1.28,2.363,–,–,52,–
None,200,"Cc1cccc(C)c1OC[C@@H](C)N [Compound 2a, (R)-(−)-Mexiletine Hydrochloride, reference compound]",–,128,0.96,54,–,–,–,–,–,–,–,–,–,–,–,–
None,200,"Cc1cccc(C)c1OC[C@H](C)N [Compound 2b, (S)-(+)-Mexiletine Hydrochloride, reference compound]",–,129,0.8,84,–,–,–,–,–,–,–,–,–,–,–,–
133 µM,22,"CNC(C)COc1c(C)cccc1C (stereo not shown) [Compound 11, 1-(2,6-dimethylphenoxy)-N-methylpropan-2-amine]",–,124,1.48,44,1.2,2.8,–,–,3.4,–,1.112,2.194,–,–,36,–
None,200,"Cc1cccc(C)c1OCC(C)N (racemic) [Compound 1, Mexiletine, reference compound]",–,183,1.83,54,–,–,–,–,–,–,–,–,–,–,–,–
66 µM,–,"Cc1cccc(OCC(N)c2ccccc2)c1C (stereo not shown) [Compound 35, 2-(2,3-dimethylphenoxy)-1-phenylethanamine]",9.2,10.9,–,–,–,–,8.9,1.2,–,10.6,1.406,None,133 µM,None,1.03,–
